Measured values as given in patent US9566262B2, “Itch suppression by fucoxanthin” (THE RITSUMEIKAN TRUST, priority 2015, dated 2017).
“Also recorded” adds a separate entry of the source.

Tests used:
NC/Nga mice [1] = assay: Scratching behavior (itch) in PiCl-sensitized NC/Nga dermatitis model mice, video monitoring; format: in vivo
Text: On day 12, day 19, day 26 and day 33 after starting application of Vaseline or fucoxanthin, 0.8% picryl chloride (PiCl) was further applied to the back skin of the mice. The behaviors of the mice were observed by video monitoring. On day 34 after starting application of Vaseline or fucoxanthin, bromodeoxyuridine (BrdU, Nacalai Tesque) ([…]) was intraperitoneally administered to the mice. At 5 weeks after starting application of Vaseline or fucoxanthin, the time each mouse spent for scratching behavior in 10 minutes was measured by video monitoring. Then, the mice were sacrificed and the auricular lymph node, blood and skin were obtained. Serum IgE content was determined by enzyme-linked immunosorbent assay (ELISA) using Mouse IgE Assay Kit (Morinaga Institute of Biological Science, Inc.). […] BrdU uptake was determined by ELISA using Cell Proliferation ELISA, BrdU (Colorimetric) (Roche Diagnostics K.K.).
In the same manner as described in Example 2, Vaseline, fucoxanthin or tacrolimus and PiCl were applied to NC/Nga mice. At 5 weeks after starting application of fucoxanthin or tacrolimus, the time spent for scratching behavior per 10 minutes in the mice treated with fucoxanthin was measured and compared to that in the mice treated with tacrolimus. […]

filaggrin (Flg) = assay: Immunohistochemical analysis of skin of NC/Nga mice; format: in vivo; conditions: topical treatment for 5 weeks, vs Vaseline
Description: (§1) Vaseline or fucoxanthin and PiCl were applied to the mice in the same manner as described in Example 2. At 5 weeks after starting application of Vaseline or fucoxanthin, the mice were sacrificed the mice skins were fixed with 4% paraformaldehyde and analyzed according to the method described in Kosaka, T. et al. (supra). The skin section (10 μm thick) was analyzed immunohistochemically using a rabbit anti-filaggrin antibody (Santa Cruz Biotechnology, Inc.) and a rabbit anti-loricrin antibody (Covance). Then, the sample was reacted with an FITC-conjugated anti-rabbit IgG IgG (Santa Cruz Biotechnology, Inc.).

loricrin (Lor) = assay: as above; format: in vivo; conditions: topical treatment for 5 weeks, vs Vaseline
Description: as §1

filaggrin = assay: Semi-quantitative immunoblot of skin proteins of NC/Nga mice; format: in vivo; conditions: topical treatment for 5 weeks, vs Vaseline
Description: (§2) The immunoblot analysis was performed according to the method described in Kosaka, T. et al. (supra). Mice skin proteins were analyzed by SDS-10% polyacrylamide gel electrophoresis. The blots were incubated with a rabbit anti-filaggrin antibody (Santa Cruz Biotechnology, Inc., Santa Cruz, Calif.), a rabbit anti-actin antibody (Santa Cruz Biotechnology, Inc., Santa Cruz, Calif.) or a rabbit anti-loricrin antibody (Covance, Berkeley, Calif.), and then reacted with a horseradish peroxidase-conjugated anti-rabbit IgG or anti-donkey IgG (Santa Cruz Biotechnology, Inc.).

loricrin = assay: as above; format: in vivo; conditions: topical treatment for 5 weeks, vs Vaseline
Description: as §2

Hdc-luc = assay: Luciferase reporter assay in HEK293 cells; format: cell-based; conditions: HEK293, 0.1, 1 or 10 μM for 48 hours, vs DMSO
Text: (§3) The plasmids pGL3-Cebpα promoter-luc and pGL3-Mitf1 promoter-luc were provided by Dr. Hua Huang (University of Colorado school, Denver, USA). The plasmid NF-κB-luc was purchased from Agilent Technologies (Santa Clara, Calif.). The GATA-responsive reporter vector was provided by Dr. Ishijima (Takasaki University of Health and welfare, Gunma, Japan). Three GATA motifs from mouse α-1 globulin gene (5′-TGATAA-3′) were tandemly inserted into Sma I site of pRBGP3. HDC promoter was provided by Dr. Ootsu (Tohoku University school of Medicine, Sendai, Japan) and cloned into Kpn I-Hind III site of pGL4.10 (Hdc promoter-luc). The reporter assay was performed according to the method described in Kanatani, N. et al. Briefly, HEK293 cells were transfected with each of the luciferase constructs (0.2 μg) or pRL-CMV (Promega, Madison, Wis.) (0.001 μg). At 3 hours after transfection, the cells were treated with fucoxanthin (0.1 μM, 1 μM or 10 μM) or DMSO for 48 hours and reporter assay was performed using Dual-Luciferase® Reporter Assay System (Promega). Luciferase activity was measured using luminometer model TD20/20n (Turner BioSystems, Sunnyvale, Calif.) and normalized to Renilla luciferase activity expressed by CMV promoter.

NF-κB-luc = assay: Luciferase reporter assay in HEK293 cells; format: cell-based; conditions: HEK293, 0.1, 1 or 10 μM for 48 hours, vs DMSO
Text: as §3

Mitf1-luc = assay: Luciferase reporter assay in HEK293 cells; format: cell-based; conditions: HEK293, 0.1, 1 or 10 μM for 48 hours, vs DMSO
Text: as §3

Cebpα-luc = assay: Luciferase reporter assay in HEK293 cells; format: cell-based; conditions: HEK293, 0.1, 1 or 10 μM for 48 hours, vs DMSO
Text: as §3

NC/Nga mice [2] = assay: Clinical symptoms of dermatitis in PiCl-sensitized NC/Nga mice; format: in vivo; conditions: topical application plus PiCl, at 5 weeks
Description: Next, we examined the effects of fucoxanthin and astaxanthin on clinical symptoms of dermatitis in NC/Nga mice. In the same manner as described in Example 2, fucoxanthin or astaxanthin and PiCl were applied to NC/Nga mice. […] In the same manner as described in Example 2, Vaseline, fucoxanthin or tacrolimus and PiCl were applied to NC/Nga mice. […] Also, serum IgE levels and swelling of the auricular lymph nodes of the mice were determined in the same manner as described in Example 2.

Question: For `CC(=O)O[C@H]1CC(C)(C)C(=C=C/C(C)=C/C=C/C(C)=C/C=C/C=C(C)/C=C/C=C(\C)C(=O)C[C@@]23O[C@]2(C)C[C@@H](O)CC3(C)C)[C@](C)(O)C1` [fucoxanthin], which “time spent for scratching behavior in 10 minutes” value (NC/Nga mice [1]; applied daily to back skin (0.1% (w/w) fucoxanthin in Vaseline), PiCl sensitization, at 5 weeks, vs Vaseline-applied mice) is on record?
Answer: attenuated; also recorded: remarkably shorter

Question: What about the “speed of action on itch compared with tacrolimus” value (NC/Nga mice [1]; topical application, PiCl-sensitized NC/Nga mice, scratching time per 10 minutes) of the same molecule?
Answer: faster-acting than tacrolimus

Question: And the “filaggrin expression in the epidermis (immunohistochemistry)” value (filaggrin (Flg))?
Answer: elevated; also recorded: abundantly localized in the stratum corneum

Question: What about the “loricrin expression in the epidermis (immunohistochemistry)” value (loricrin (Lor)) of the same molecule?
Answer: elevated; also recorded: distributed in the whole skin

Question: And the “filaggrin expression level in skin (western blot)” value (filaggrin)?
Answer: elevated

Question: What about the “loricrin expression level in skin (western blot)” value (loricrin) of the same molecule?
Answer: elevated

Question: And the Hdc-luc reporter activity (Hdc-luc)?
Answer: not regulated

Question: And the “NF-κB activity (NFκB-luc)” value (NF-κB-luc)?
Answer: not affected

Question: And the Mitf1-luc reporter activity (Mitf1-luc)?
Answer: not regulated

Question: What about the Cebpα-luc reporter activity (Cebpα-luc) of the same molecule?
Answer: not regulated

Question: What about the “clinical symptoms of dermatitis (AD symptoms)” value (NC/Nga mice [2]) of the same molecule?
Answer: remarkably improved; also recorded: almost completely did; also recorded: ameliorated clinical symptom of dermatitis
